Drawing on patent US12240862B2, “Inhibitors of peptidylarginine deiminases” (Gilead Sciences, Inc., priority 2020, dated 2025), this text covers IC50 for 19 compounds.

T1 sequence (Q9UM07 2-663): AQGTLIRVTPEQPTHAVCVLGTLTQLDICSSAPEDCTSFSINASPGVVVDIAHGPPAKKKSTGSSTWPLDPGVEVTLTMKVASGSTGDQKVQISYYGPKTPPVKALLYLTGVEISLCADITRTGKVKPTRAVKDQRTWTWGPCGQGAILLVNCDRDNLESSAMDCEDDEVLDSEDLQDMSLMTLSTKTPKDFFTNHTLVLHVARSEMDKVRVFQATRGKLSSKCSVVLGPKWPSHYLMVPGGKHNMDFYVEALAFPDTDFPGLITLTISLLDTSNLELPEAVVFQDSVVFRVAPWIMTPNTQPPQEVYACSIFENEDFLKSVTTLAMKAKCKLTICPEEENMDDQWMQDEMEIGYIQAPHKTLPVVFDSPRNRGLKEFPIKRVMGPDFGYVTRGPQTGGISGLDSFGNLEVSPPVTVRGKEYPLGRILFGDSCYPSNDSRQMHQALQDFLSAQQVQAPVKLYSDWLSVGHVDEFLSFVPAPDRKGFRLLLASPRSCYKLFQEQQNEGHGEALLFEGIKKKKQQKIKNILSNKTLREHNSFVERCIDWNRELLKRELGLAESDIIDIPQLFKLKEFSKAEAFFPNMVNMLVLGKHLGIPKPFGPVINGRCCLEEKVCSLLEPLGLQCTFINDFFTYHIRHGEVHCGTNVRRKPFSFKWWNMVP

This assay has as its target T1, human PAD4 (Homo sapiens, UniProt Q9UM07).
T1 construct: human PAD4 (NM_012387), A2P663, was PCR amplified; His-SUMO (N, cleaved yes); made in house; host or cells: E. coli BL21(DE3)
The assay is described as follows: In vitro PAD4 BAEE biochemical assay. As to conditions: human PAD4, BAEE substrate; 5 nM PAD4, 2 mM calcium chloride, 3 mM BAEE; geometric mean of multiple experiments. An outline of the steps:
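Ammonia release from BAEE deimination monitored by o-phthalaldehyde amine coupling (1 h, 25 °C) after EDTA stop. Final conditions: 5 nM tag-free recombinant human PAD4 (E. coli), 2 mM CaCl2, 3 mM BAEE, pH 7.6 MOPS with DTT; 30 min compound preincubation, then 2 h reaction at 25 °C.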
Turning to `COc1cc(C(=O)N2[C@H]3CC[C@@H]2[C@H](N)C3)cc2nc(-c3cc4ccc([C@@H](C)NC(=O)C5(CO)CC5)nc4n3CC3CC3)c(C)n12` [Example 128, ~{N}-[(1~{R})-1-[2-[7-[(1~{R},2~{R},4~{S})-2-amino-7-azabicyclo[2.2.1]heptane-7-carbonyl]-5-methoxy-3-methylimidazo [1,2-a]pyridin-2-yl]-1-(cyclopropylmethyl)pyrrolo [2,3-b]pyridin-6-yl]ethyl]-1-(hydroxymethyl) cyclopropane-1-carboxamide], the IC50 was 35.8 nM.

Turning to `COc1cc(C(=O)N2[C@H]3CC[C@@H]2[C@H](N)C3)cc2nc(-c3cc4ccc([C@@H](C)NC(=O)c5ccon5)nc4n3CC3CC3)c(C)n12` [Example 104, ~{N}-[(1~{R})-1-[2-[7-[(1~{R},2~{R},4~{S})-2-amino-7-azabicyclo[2.2.1]heptane-7-carbonyl]-5-methoxy-3-methylimidazo [1,2-a]pyridin-2-yl]-1-(cyclopropylmethyl)pyrrolo [2,3-b]pyridin-6-yl]ethyl]-1,2-oxazole-3-carboxamide], the IC50 is 88.3 nM. With `CS(=O)(=O)N(c1ccc2cc(-c3nc4cc(C(=O)N5CC[C@@H](N)C5)ccn4c3C3CC3)n(CC3CC3)c2n1)C(F)F` [Example 393, ~{N}-[2-[7-[(3~{R})-3-aminopyrrolidine-1-carbonyl]-3-cyclopropylimidazo[1,2-a]pyridin-2-yl]-1-(cyclopropylmethyl)pyrrolo [2,3-b]pyridin-6-yl]-~{N}-(difluoromethyl) methanesulfonamide] the figure was 2010 nM. In the case of `COc1cc(C(=O)N2CCC[C@@H](N)C2)cc2nc(-c3cc4ccc(OCC(=O)N(C)C)nc4n3CC3CC3)c(C)n12` [Example 620, 2-[2-[7-[(3~{R})-3-aminopiperidine-1-carbonyl]-5-methoxy-3-methylimidazo[1,2-a]pyridin-2-yl]-1-(cyclopropylmethyl)pyrrolo[2,3-b]pyridin-6-yl] oxy-~{N},~{N}-dimethylacetamide] it was 1190 nM. In the case of `COc1cc(C(=O)N2[C@H]3CC[C@@H]2[C@H](N)C3)cc2nc(-c3cc4ccc([C@@H](C)NC(=O)C5(C(F)F)CC5)nc4n3CC3CC3)c(C)n12` [Example 137, ~{N}-[(1~{R})-1-[2-[7-[(1~{R},2~{R},4~{S})-2-amino-7-azabicyclo[2.2.1]heptane-7-carbonyl]-5-methoxy-3-methylimidazo [1,2-a]pyridin-2-yl]-1-(cyclopropylmethyl)pyrrolo [2,3-b]pyridin-6-yl]ethyl]-1-(difluoromethyl) cyclopropane-1-carboxamide] it was 107 nM; in that of `COc1cc(C(=O)N2[C@H]3CC[C@@H]2[C@H](N)C3)cc2nc(-c3cc4ccc(N5CC(c6ccccc6)CCS5(=O)=O)nc4n3CC3CC3)c(C)n12` (stereo partly shown) [Example 453, [(1~{R},2~{R},4~{S})-2-amino-7-azabicyclo [2.2.1]heptan-7-yl]-[2-[1-(cyclopropylmethyl)-6-(1,1-dioxo-4-phenylthiazinan-2-yl)pyrrolo[2,3-b]pyridin-2-yl]-5-methoxy-3-methylimidazo[1,2-a]pyridin-7-yl]methanone], 9320 nM; in that of `COc1cc(C(=O)N2[C@H]3CC[C@@H]2[C@H](N)C3)cc2nc(-c3cc4ccc(Oc5ccccc5)nc4n3CC3CC3)c(C)n12` [Example 628, [(1~{R},2~{R},4~{S})-2-amino-7-azabicyclo [2.2.1]heptan-7-yl]-[2-[1-(cyclopropylmethyl)-6-phenoxypyrrolo[2,3-b]pyridin-2-yl]-5-methoxy-3-methylimidazo[1,2-a]pyridin-7-yl]methanone], 553 nM. As to `COc1cc(C(=O)N2[C@H]3CC[C@@H]2[C@H](N)C3)cc2nc(-c3cc4ccc([C@@H](C)NC(=O)N5CC(C(N)=O)C5)nc4n3CC3CC3)c(C)n12` [Example 225, 1-~{N}-[(1~{R})-1-[2-[7-[(1~{R},2~{R},4~{S})-2-amino-7-azabicyclo[2.2.1]heptane-7-carbonyl]-5-methoxy-3-methylimidazo [1,2-a]pyridin-2-yl]-1-(cyclopropylmethyl)pyrrolo [2,3-b]pyridin-6-yl]ethyl]azetidine-1,3-dicarboxamide], the half-inhibitory concentration (IC50) was determined as 81.3 nM. As to `COc1cc(C(=O)N2[C@H]3CC[C@@H]2[C@H](N)C3)cc2nc(-c3cc4ccc([C@@H](C)NC(=O)N[C@H](C)c5cccnc5)nc4n3CC3CC3)c(C3CC3)n12` [Example 218, 1-[(1~{R})-1-[2-[7-[(1~{R},2~{R},4~{S})-2-amino-7-azabicyclo[2.2.1]heptane-7-carbonyl]-3-cyclopropyl-5-methoxyimidazo [1,2-a]pyridin-2-yl]-1-(cyclopropylmethyl)pyrrolo [2,3-b]pyridin-6-yl]ethyl]-3-[(1~{R})-1-pyridin-3-ylethyl]urea], the IC50 amounted to 55.5 nM. Take `COc1cc(C(=O)N2CCC[C@@H](N)C2)cc2nc(-c3cc4ccc(O[C@@H](C)C(=O)NC56CC(F)(C5)C6)nc4n3CC3CC3)c(C)n12` [Example 631, (2~{S})-2-[2-[7-[(3~{R})-3-aminopiperidine-1-carbonyl]-5-methoxy-3-methylimidazo[1,2-a]pyridin-2-yl]-1-(cyclopropylmethyl)pyrrolo[2,3-b]pyridin-6-yl]oxy-~{N}-(3-fluoro-1-bicyclo[1.1.1]pentanyl)propanamide]: the IC50 was 10000 nM.

Take `COc1cc(C(=O)N2C[C@H]3CCC[C@@H]2[C@@H]3N)cc2nc(-c3cc4ccc(N(C(F)F)S(C)(=O)=O)nc4n3CC3CC3)c(C)n12` [Example 349, N-(2-(7-((1R,5R,8R)-8-amino-6-azabicyclo[3.2.1]octane-6-carbonyl)-5-methoxy-3-methylimidazo [1,2-a]pyridin-2-yl)-1-(cyclopropylmethyl)-1H-pyrrolo[2,3-b]pyridin-6-yl)-N-(difluoromethyl) methanesulfonamide]: the 50% inhibitory concentration (IC50) was 485 nM. For the compound `COc1cc(C(=O)N2[C@H]3CC[C@@H]2[C@@H]2NCCO[C@@H]2C3)cc2nc(-c3cc4ccc([C@@H](C)NC(=O)C56CC(F)(C5)C6)nc4n3CC3CC3)c(C)n12` [Example 13, ~{N}-[(1~{R})-1-[1-(cyclopropylmethyl)-2-[5-methoxy-3-methyl-7-[(1~{R},2~{S},7~{R}, 9~{S})-6-oxa-3,12-diazatricyclo [7.2.1.0^{2,7}]dodecane-12-carbonyl]imidazo[1,2-a]pyridin-2-yl]pyrrolo[2,3-b]pyridin-6-yl]ethyl]-3-fluorobicyclo[1.1.1] pentane-1-carboxamide], the IC50 amounted to 1780 nM.

Take `COc1cc(C(=O)N2[C@H]3CC[C@@H]2[C@H](N)C3)cc2nc(-c3cc4ccc([C@@H](C)NC(=O)c5cnc(C6CC6)o5)nc4n3CC3CC3)c(C)n12` [Example 79, ~{N}-[(1~{R})-1-[2-[7-[(1~{R},2~{R},4~{S})-2-amino-7-azabicyclo[2.2.1]heptane-7-carbonyl]-5-methoxy-3-methylimidazo [1,2-a]pyridin-2-yl]-1-(cyclopropylmethyl)pyrrolo [2,3-b]pyridin-6-yl]ethyl]-2-cyclopropyl-1,3-oxazole-5-carboxamide]: the IC50 was 56 nM. As for `COc1cc(C(=O)N2[C@H]3CC[C@@H]2[C@H](N)C3)cc2nc(-c3cc4ccc([C@@H](C)NC(=O)[C@@H](C)OC)nc4n3CC3CC3)c(C)n12` [Example 40, (2~{R})-~{N}-[(1~{R})-1-[2-[7-[(1~{R},2~{R},4~{S})-2-amino-7-azabicyclo [2.2.1]heptane-7-carbonyl]-5-methoxy-3-methylimidazo [1,2-a]pyridin-2-yl]-1-(cyclopropylmethyl)pyrrolo[2,3-b]pyridin-6-yl]ethyl]-2-methoxypropanamide], the half-maximal inhibitory concentration (IC50) worked out at 64.5 nM. In the case of `CS(=O)(=O)N(c1ccc2cc(-c3nc4cc(C(=O)N5CCC[C@@H](N)C5)ccn4c3CC3CC3)n(CC3CC3)c2n1)C(F)F` [Example 438, ~{N}-[2-[7-[(3~{R})-3-aminopiperidine-1-carbonyl]-3-(cyclopropylmethyl)imidazo [1,2-a]pyridin-2-yl]-1-(cyclopropylmethyl)pyrrolo [2,3-b]pyridin-6-yl]-~{N}-(difluoromethyl) methanesulfonamide] it was 194 nM; in that of `COc1cc(C(=O)N2C[C@H]3C[C@H](C)[C@@H]2[C@@H]3N)cc2nc(-c3cc4ccc([C@@H](C)NC(=O)C(C)(C)C)nc4n3CC3CC3)c(C)n12` [Example 167, N-((R)-1-(2-(7-((1R,4R,6S,7R)-7-amino-6-methyl-2-azabicyclo[2.2.1]heptane-2-carbonyl)-5-methoxy-3-methylimidazo [1,2-a]pyridin-2-yl)-1-(cyclopropylmethyl)-1H-pyrrolo [2,3-b]pyridin-6-yl)ethyl) pivalamide], 2700 nM. With `CCc1ccc2cc(-c3nc4cc(C(=O)N5CCC[C@@H](N)C5)cc(OC)n4c3C)n(CC3CC3)c2c1F` [Example 586, [(3~{R})-3-aminopiperidin-1-yl]-[2-[1-(cyclopropylmethyl)-6-ethyl-7-fluoroindol-2-yl]-5-methoxy-3-methylimidazo [1,2-a]pyridin-7-yl]methanone] the figure was 3210 nM. With `COc1cc(C(=O)N2CCC[C@@H](N)C2)cc2nc(-c3cc4ccc([C@@H](C)N5CCCC5=O)nc4n3CC3CC3)c(C)n12` [Example 279, 1-[(1~{R})-1-[2-[7-[(3~{R})-3-aminopiperidine-1-carbonyl]-5-methoxy-3-methylimidazo [1,2-a]pyridin-2-yl]-1-(cyclopropylmethyl)pyrrolo [2,3-b]pyridin-6-yl]ethyl] pyrrolidin-2-one] the figure was 234 nM.

For `COc1cc(C(=O)N2[C@H]3CC[C@@H]2[C@H](N)C3)cc2nc(-c3cc4ccc([C@@H](C)NC(=O)c5ccn(C(F)F)n5)nc4n3CC3CC3)c(C)n12` [Example 81, ~{N}-[(1~{R})-1-[2-[7-[(1~{R},2~{R},4~{S})-2-amino-7-azabicyclo[2.2.1]heptane-7-carbonyl]-5-methoxy-3-methylimidazo [1,2-a]pyridin-2-yl]-1-(cyclopropylmethyl)pyrrolo [2,3-b]pyridin-6-yl]ethyl]-1-(difluoromethyl)pyrazole-3-carboxamide], the IC50 was found to be 112 nM.
